Measurements: patent publication US6737383B1, “Herbicidal oxadiazolidines” (priority 1999, dated 2004)

What was measured:
[1] = tested on: corn; assay: Test B pre/postemergence corn; type: in vivo, Zea mays
How it was run: (§1)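 Response is a visual 0-to-10 score relative to untreated plants, where 0 means no effect and 10 means complete control, taken twelve to sixteen days after application. Treatments went onto soil at planting and onto foliage of 1- to 4-leaf plants, using a surfactant-containing non-phytotoxic solvent.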

[2] = tested on: velvetleaf; assay: Test B pre/postemergence velvetleaf; type: in vivo, Abutilon theophrasti
How it was run: as §1

[3] = tested on: soybean; assay: Test B pre/postemergence soybean; type: in vivo, Glycine max
How it was run: as §1

[4] = tested on: rice; assay: Test B flood test rice; type: in vivo, Oryza sativa
How it was run: (§2)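 Read-out is a visual response score from 0 (no effect) to 10 (complete control), assigned by comparison with untreated controls. Treatment was applied at the 2-leaf stage, and plants stayed in the greenhouse for twelve to sixteen days before scoring.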

[5] = tested on: smallflower flatsedge; assay: Test B flood test smallflower flatsedge; type: in vivo, Cyperus difformis
How it was run: as §2

[6] = tested on: rape; assay: Test B pre/postemergence rape; type: in vivo, Brassica napus
How it was run: as §1

[7] = tested on: bamyardgrass; assay: Test B flood test barnyardgrass; type: in vivo, Echinochloa crus-galli
How it was run: as §2

[8] = tested on: wild oat; assay: Test B pre/postemergence wild oat; type: in vivo, Avena fatua
How it was run: as §1

[9] = tested on: sugar beet; assay: Test B pre/postemergence sugar beet; type: in vivo, Beta vulgaris
How it was run: as §1

[10] = tested on: blackgrass; assay: Test B pre/postemergence blackgrass; type: in vivo, Alopecurus myosuroides
How it was run: as §1

[11] = tested on: wheat; assay: Test B pre/postemergence wheat; type: in vivo, Triticum aestivum
How it was run: as §1

[12] = tested on: surinam grass; assay: Test B pre/postemergence surinam grass; type: in vivo, Brachiaria decumbens
How it was run: as §1

[13] = tested on: bedstraw; assay: Test B pre/postemergence bedstraw; type: in vivo, Galium aparine; conditions: Postemergence
How it was run: as §1

[14] = tested on: duck salad; assay: Test B flood test duck salad; type: in vivo, Heteranthera limosa
How it was run: as §2

[15] = tested on: crabgrass; assay: Test B pre/postemergence crabgrass; type: in vivo, Digitaria sanguinalis
How it was run: as §1

[16] = tested on: cocklebur; assay: Test B pre/postemergence cocklebur; type: in vivo, Xanthium strumarium
How it was run: as §1

[17] = tested on: purple nutsedge; assay: Test B pre/postemergence purple nutsedge; type: in vivo, Cyperus rotundus
How it was run: as §1

[18] = Postemergence, Rate 250 g/ha, scale 0 to 10
[19] = Postemergence, Rate 500 g/ha, scale of 0 to 10 where 0 is no effect and 10 is complete control
[20] = Preemergence, Rate 62 g/ha, scale 0 to 10 (0 no effect, 10 complete control)
[21] = Preemergence, Rate 125 g/ha, scale of 0 to 10 where 0 is no effect and 10 is complete control
[22] = Preemergence, Rate 250 g/ha, scale 0 to 10, 0 is no effect, 10 is complete control
[23] = Preemergence, Rate 500 g/ha, scale 0 to 10, 0 is no effect, 10 is complete control
[24] = Rate 62 g/ha, Postemergence, scale of 0 to 10 where 0 is no effect and 10 is complete control
[25] = Rate 125 g/ha, Postemergence, scale 0 to 10, 0 is no effect, 10 is complete control
[26] = Postemergence block (flood test species), Rate 250 g/ha, scale 0 to 10
[27] = Postemergence section (flood test species), Rate 500 g/ha, scale of 0 to 10 where 0 is no effect and 10 is complete control
[28] = Rate 125 g/ha, Postemergence section (flood test species), scale 0 to 10, 0 is no effect, 10 is complete control
[29] = Rate 62 g/ha, Postemergence (flood test species), scale of 0 to 10 where 0 is no effect and 10 is complete control

## C=CC[Si](C)(C)Cn1c(=O)on(C(=O)N(c2ccc(F)cc2)C(C)C)c1=O [Compound 426]
[1]; [18]
  Corn plant response rating: 2
[1]; [19]
  Corn plant response rating: 4
[1]; [20]
  Plant response rating, Corn: 0
[1]; [21]
  Plant response rating, Corn: 0
[1]; [22]
  Corn plant response rating: 0
[1]; [23]
  Corn plant response rating: 6
[1]; [24]
  Corn plant response rating: 0
[1]; [25]
  Corn plant response rating: 0
[2]; [18]
  Velvetleaf plant response rating: 1
[2]; [19]
  Velvetleaf plant response rating: 2
[2]; [20]
  Plant response rating, Velvetleaf: 0
[2]; [21]
  Plant response rating, Velvetleaf: 2
[2]; [22]
  Velvetleaf plant response rating: 2
[2]; [23]
  Velvetleaf plant response rating: 5
[2]; [25]
  Velvetleaf plant response rating: 0
[3]; [18]
  Soybean plant response rating: 6
[3]; [19]
  Soybean plant response rating: 7
[3]; [20]
  Plant response rating, Soybean: 0
[3]; [21]
  Plant response rating, Soybean: 0
[3]; [22]
  Soybean plant response rating: 0
[3]; [23]
  Soybean plant response rating: 0
[3]; [25]
  Soybean plant response rating: 4
[4]; [26]
  Rice plant response rating: 0
[4]; [27]
  Rice plant response rating: 0
[4]; [28]
  Rice plant response rating: 0
[5]; [26]
  S. Flatsedge plant response rating: 0
[5]; [27]
  S. Flatsedge plant response rating: 0
[5]; [28]
  S. Flatsedge plant response rating: 0
[6]; [18]
  Rape plant response rating: 2
[6]; [19]
  Rape plant response rating: 4
[6]; [20]
  Plant response rating, Rape: 0
[6]; [21]
  Plant response rating, Rape: 0
[6]; [22]
  Rape plant response rating: 8
[6]; [23]
  Rape plant response rating: 10
[6]; [25]
  Rape plant response rating: 0
[7]; [26]
  Barnyardgrass plant response rating: 0
[7]; [27]
  Barnyardgrass plant response rating: 0
[7]; [29]
  Barnyardgrass plant response rating: 0
[7]; [28]
  Barnyardgrass plant response rating: 0
[8]; [18]
  Wild oats plant response rating: 2
[8]; [19]
  Wild oats plant response rating: 2
[8]; [20]
  Plant response rating, Wild oats: 2
[8]; [21]
  Plant response rating, Wild oats: 7
[8]; [22]
  Wild oats plant response rating: 8
[8]; [23]
  Wild oats plant response rating: 10
[8]; [25]
  Wild oats plant response rating: 0
[9]; [18]
  Sugarbeets plant response rating: 3
[9]; [19]
  Sugarbeets plant response rating: 3
[9]; [20]
  Plant response rating, Sugarbeets: 0
[9]; [21]
  Plant response rating, Sugarbeets: 3
[9]; [22]
  Sugarbeets plant response rating: 4
[9]; [23]
  Sugarbeets plant response rating: 6
[9]; [25]
  Sugarbeets plant response rating: 3
[10]; [18]
  Blackgrass plant response rating: 8
[10]; [19]
  Blackgrass plant response rating: 8
[10]; [20]
  Plant response rating, Blackgrass: 4
[10]; [21]
  Plant response rating, Blackgrass: 6
[10]; [22]
  Blackgrass plant response rating: 9
[10]; [23]
  Blackgrass plant response rating: 9
[10]; [24]
  Blackgrass plant response rating: 3
[10]; [25]
  Blackgrass plant response rating: 6
[11]; [18]
  Wheat plant response rating: 0
[11]; [19]
  Wheat plant response rating: 2
[11]; [20]
  Plant response rating, Wheat: 0
[11]; [21]
  Plant response rating, Wheat: 0
[11]; [22]
  Wheat plant response rating: 2
[11]; [23]
  Wheat plant response rating: 6
[11]; [25]
  Wheat plant response rating: 0
[12]; Postemergence, Rate 250 g/ha, scale 0 to 10, 0 no effect, 10 complete control
  B. signalgrass plant response rating: 7
[12]; [19]
  B. signalgrass plant response rating: 8
[12]; [20]
  Plant response rating, B. signalgrass: 4
[12]; [21]
  Plant response rating, B. signalgrass: 4
[12]; [22]
  B. signalgrass plant response rating: 6
[12]; Preemergence, Rate 500 g/ha, scale of 0 to 10 where 0 is no effect and 10 is complete control
  B. signalgrass plant response rating: 8
[12]; [24]
  B. signalgrass plant response rating: 2
[12]; [25]
  B. signalgrass plant response rating: 5
[13]; Rate 250 g/ha, scale 0 to 10
  Bedstraw plant response rating: 9
[13]; Rate 500 g/ha, scale of 0 to 10 where 0 is no effect and 10 is complete control
  Bedstraw plant response rating: 9
[14]; [26]
  Ducksalad plant response rating: 0
[14]; [27]
  Ducksalad plant response rating: 0
[14]; [29]
  Ducksalad plant response rating: 0
[14]; [28]
  Ducksalad plant response rating: 0
[15]; [18]
  Crabgrass plant response rating: 9
[15]; [19]
  Crabgrass plant response rating: 9
[15]; [20]
  Plant response rating, Crabgrass: 8
[15]; [21]
  Plant response rating, Crabgrass: 9
[15]; [22]
  Crabgrass plant response rating: 10
[15]; [23]
  Crabgrass plant response rating: 10
[15]; [24]
  Crabgrass plant response rating: 1
[15]; [25]
  Crabgrass plant response rating: 6
[16]; [18]
  Cocklebur plant response rating: 0
[16]; [19]
  Cocklebur plant response rating: 0
[16]; [20]
  Plant response rating, Cocklebur: 0
[16]; [21]
  Plant response rating, Cocklebur: 0
[16]; [22]
  Cocklebur plant response rating: 0
[16]; [23]
  Cocklebur plant response rating: 0
[16]; [24]
  Cocklebur plant response rating: 0
[16]; [25]
  Cocklebur plant response rating: 0
[17]; [18]
  Nutsedge plant response rating: 0
[17]; [19]
  Nutsedge plant response rating: 3
[17]; [20]
  Plant response rating, Nutsedge: 0
[17]; [21]
  Plant response rating, Nutsedge: 0
[17]; [22]
  Nutsedge plant response rating: 0
[17]; [23]
  Nutsedge plant response rating: 0
[17]; [25]
  Nutsedge plant response rating: 0
